Laboratory results reported in patent publication US7855228B2, “Antibiotics targeting MreB” (The Board of Trustees of the Leland Stamford Junior …, priority 2005, dated 2010).
Converted amounts (≈) assume the structure as drawn. Where two headings read alike, the source gives them in different places.

How the values were obtained:
P. putida NBRC14164 = assay: Determination of minimum inhibitory concentration (MIC); type: cell-based, Pseudomonas putida; settings: Pseudomonas putida, read-out: MIC P. putida
Outline: (§1)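 Two-fold serial agar dilution on L agar and also on Mueller Hinton agar (pH 7.3); 10 µl of stationary-phase culture diluted in 0.85% NaCl to 10^6 cells/ml spotted per plate. MIC taken as lowest concentration inhibiting growth.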

E. coli JA221, JST975 = assay: Cell shapes of A22-resistant mutant JA221 and parent JST975; type: cell-based; settings: 10 μg/ml A22
Protocol: FIG. 9. Effects of A22 and mecillinam on cell shapes of the A22-resistant mutant JA221. Exponentially growing cells of the A22-resistant mutant strain JA221 and the parent strain JST975 were treated with 1 μg/ml mecillinam or 10 μg/ml A22 for 2 h at 37° C. Differential interference contrast microphotographs are shown.
After prolonged (9 days) incubation of the JST975 assay plates, several isolated colonies that grew up within the clear growth inhibitory zones were purified on L plates and their A22-sensitivity was examined.

HoIB-GFP = HoIB-GFP (replisome) localization; type: cell-based, Caulobacter crescentus; settings: 1 hr treatment
Protocol: To assess the ability of these cells to assemble a replisome at the replication origins, A22 was administered to cells expressing a fusion of GFP to the HoIB subunit of DNA polymerase.

S. typhimurium NBRC13245 = assay: Determination of minimum inhibitory concentration (MIC); type: cell-based, Salmonella typhimurium; settings: Salmonella enterica, read-out: MIC S. typhimurium
Outline: as §1

GFP-MreB [1] = molecular target: T1, GFP-MreB (Caulobacter vibrioides, UniProt A0A0H3C7V4, T167A); assay: GFP-MreB localization; type: cell-based, Caulobacter crescentus; settings: 10 μg/ml; A22-resistant strain
T1 construct: expressed in transfected cells; host or cells: Caulobacter crescentus CB15N derivative, xylose-inducible Pxyl:gfp-mreB
Protocol: (§2) A22 Rapidly and Reversibly Delocalizes GFP-MreB. During the Caulobacter cell cycle, MreB forms a lengthwise spiral in swarmer cells and stalked cells. It then appears to condense into an increasingly tight ring positioned at the future site of cell division. When cytokinesis initiates, this ring is replaced by a lengthwise spiral, such that upon cell division each daughter cell inherits a fully expanded spiral. […] Since 10 μg/ml of A22 strongly delocalizes GFP-MreB and blocks cell division without completely inhibiting cell growth, we have chosen to focus most of our subsequent A22 studies on this concentration.
(§3) The onset of A22's effect on GFP-MreB is very rapid: within 1 min the GFP-MreB already delocalized (FIG. 4B). A22's effect on GFP-MreB is also rapidly reversible. Diluting the A22 concentration of cells treated with A22 for 1 hr by mounting them on pads lacking A22 leads to a full recovery of MreB localization within 1 min (FIG. 4C). GFP-MreB was monitored in the same cells before, during, and after A22 treatment by timelapse imaging cells in a flow chamber that allows A22 to be washed in and out (FIGS. 4D-4F). […] Cells generally retained a memory of the MreB structure present before A22 treatment (FIGS. […]). Cells with rings recovered rings, cells with spirals recovered spirals, and cells with partially compacted rings recovered partially compacted rings. These findings are consistent with MreB's localization being determined by extrinsic factors regulated by the cell cycle state, rather than an intrinsic MreB localization cycle.
(§4) We constructed a fusion of the most common A22-resistant mreB missense mutation (T158A) to GFP and asked if the cellular organization of this MreB mutant is maintained in 10 μg/ml of A22. This fusion was expressed in the corresponding A22-resistant strain, producing merodiploid cells containing both GFP-tagged and -untagged mutated mreB, but no wild-type mreB. […] Since this mutation in the MreB ATP binding pocket perturbs MreB dynamic localization, nucleotide hydrolysis may play a role in regulating MreB dynamics.
(§5) Microscopy and Timelapse Imaging. All experiments other than the A22 flow-cell analysis were performed by mounting the samples on 1% agarose pads as described, with the appropriate concentration of A22 added to the agarose. The rates of origin-distal locus segregation were determined by inducing PxyI:lacI:cfp expression with 0.03% xylose for 75 min, isolating swarmer cells, and growing the swarmer cells in M2G liquid medium for 50 min. After 50 min, 10 μg/ml of A22 was added to these liquid cultures, they were mounted onto 1% M2G agarose pads containing 10 μg/ml A22, and a phase and CFP fluorescence image was captured every 2 min for 60 min. The images were analyzed by previously described software to determine the average position and rate of movement of the observed foci.
(§6) The A22 flow-cell treatment timelapse images were performed on PxyI:gfp-mreB cells induced for 2 hr with 0.03% xylose. These cells were adhered to polylysine-coated cover slips. The cover slips were then adhered to microscope slides with two parallel strips of double-sided tape (3M), leaving a central channel. An excess of medium containing 0 or 10 μg/ml A22 was pipetted onto one opening of this channel and wicked through by placing a tissue (VWR) on the other end. Images were collected every 30 s.

GFP-MreB [2] = molecular target: T2, GFP-MreB (Caulobacter vibrioides, UniProt A0A0H3C7V4); assay: GFP-MreB localization; type: cell-based, Caulobacter crescentus
T2 construct: expressed in transfected cells; host or cells: Caulobacter crescentus CB15N derivative, xylose-inducible Pxyl:gfp-mreB
Protocol: as §2, §3, §4, §5, §6

P. putida = assay: Induction of spherical cells; type: cell-based
Description: (§7) A22 was effective against Gram-negative rod-shaped bacteria.

S. typhimurium = assay: Induction of spherical cells; type: cell-based
Description: as §7

B. subtilis = assay: Induction of spherical cells; type: cell-based
Description: as §7

E. coli MG1655 = assay: Determination of minimum inhibitory concentration (MIC); type: cell-based; settings: Escherichia coli, read-out: MIC E. coli
Outline: as §1

[3] = tested on: S. aureus subsp. aureus NBRC15035; assay: as above; type: cell-based, Staphylococcus aureus; settings: Staphylococcus aureus, read-out: MIC S. aureus
Outline: as §1

T2 sequence (A0A0H3C7V4 whole entry): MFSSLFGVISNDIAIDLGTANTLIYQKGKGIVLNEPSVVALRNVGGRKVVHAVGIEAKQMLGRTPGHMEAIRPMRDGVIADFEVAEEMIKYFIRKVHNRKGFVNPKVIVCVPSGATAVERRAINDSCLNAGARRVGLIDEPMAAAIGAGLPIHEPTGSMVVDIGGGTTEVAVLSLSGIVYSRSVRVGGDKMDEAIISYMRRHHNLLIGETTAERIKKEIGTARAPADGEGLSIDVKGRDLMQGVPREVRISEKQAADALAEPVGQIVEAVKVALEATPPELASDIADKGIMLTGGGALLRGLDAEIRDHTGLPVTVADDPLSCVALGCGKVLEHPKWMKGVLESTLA
T1 sequence (A0A0H3C7V4 whole entry T167A): as the sequence (A0A0H3C7V4 whole entry) above, with T167A counted along it

For `N=C(N)SCc1ccc(Cl)c(Cl)c1` [Compound 1, S-(3,4-dichlorobenzyl)isothiourea], the MIC (P. putida NBRC14164; NBRC14164, Example 2, methods as in Example 1) was 100 mg/L (≈ 425 µM), the MIC (P. putida NBRC14164; NBRC14164, Table 1, NBRC14164) was 100 mg/L (≈ 425 µM) and the “Cell shape of parent strain JST975” value (E. coli JA221, JST975) was “formed spherical cells”. For the same molecule, the “Cell shape of resistant mutant JA221” value (E. coli JA221, JST975) was “grew as rods”, the HoIB-GFP localization (HoIB-GFP) was “no effect on HoIB-GFP localization” and the MIC (S. typhimurium NBRC13245; Example 2, methods as in Example 1) was 3.13 mg/L (≈ 13.3 µM). The MIC (S. typhimurium NBRC13245; Table 1, NBRC13245) was 3.13 mg/L (≈ 13.3 µM), the “Localization of mutated (T158A) GFP-MreB” value (GFP-MreB [1]) was “completely unaffected” and the “GFP-MreB localization (puncta and bands)” value (GFP-MreB [2]; 1 μg/ml or less) was “largely maintained”. The “Onset of GFP-MreB delocalization” value (GFP-MreB [2]; 10 μg/ml) was no more than 1 min, the GFP-MreB localization (GFP-MreB [2]; 10 or 100 μg/ml) was “completely disrupted this GFP-MreB localization” and the “Full recovery of MreB localization after diluting A22” value (GFP-MreB [2]; cells treated 1 hr, mounted on pads lacking A22) was no more than 1 min. The “Induction of spherical cells in P. putida” value (P. putida) was “induced spherical cells”, the “Induction of spherical cells in S. typhimurium” value (S. typhimurium) was “induced spherical cells” and the “Induction of spherical cells in B. subtilis” value (B. subtilis) was “did not”. For the same molecule, the MIC (E. coli MG1655; MG1655, Example 2, methods as in Example 1) was 3.13 mg/L (≈ 13.3 µM), the MIC (E. coli MG1655; MG1655, Table 1, E. coli MG1655) was 3.13 mg/L (≈ 13.3 µM) and the MIC ([3]; NBRC15035, Example 2, methods as in Example 1) was greater than 100 mg/L. The MIC ([3]; NBRC15035, Table 1, NBRC15035) was greater than 100 mg/L.
